In PubChem BioAssay AID1159558 (GlaxoSmithKline (GSK), 2015):
Each block holds one compound with its values, some of them ahead of it. Active and inactive are the calls of the source.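 Rule for the calls: active = IC50 against T. cruzi CYP51 below a set limit; inactive = the rest.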

Target: Sterol 14-alpha demethylase (Trypanosoma cruzi (strain CL Brener)) (UniProt Q7Z1V1)
Test: T. cruzi sterol 14-alpha demethylase inhibition – biochemical, recombinant enzyme, mechanism study for T. cruzi antiparasitic project, dose response (AID 1159558);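 note: enzyme in bacterial membranes with Anopheles gambiae CYP reductase and cytochrome b5 partners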
Details: recombinant T. cruzi CYP51, BOMCC fluorescence

Sterol 14-alpha demethylase (Trypanosoma cruzi (strain CL Brener)), sequence (Q7Z1V1 whole entry, looked up): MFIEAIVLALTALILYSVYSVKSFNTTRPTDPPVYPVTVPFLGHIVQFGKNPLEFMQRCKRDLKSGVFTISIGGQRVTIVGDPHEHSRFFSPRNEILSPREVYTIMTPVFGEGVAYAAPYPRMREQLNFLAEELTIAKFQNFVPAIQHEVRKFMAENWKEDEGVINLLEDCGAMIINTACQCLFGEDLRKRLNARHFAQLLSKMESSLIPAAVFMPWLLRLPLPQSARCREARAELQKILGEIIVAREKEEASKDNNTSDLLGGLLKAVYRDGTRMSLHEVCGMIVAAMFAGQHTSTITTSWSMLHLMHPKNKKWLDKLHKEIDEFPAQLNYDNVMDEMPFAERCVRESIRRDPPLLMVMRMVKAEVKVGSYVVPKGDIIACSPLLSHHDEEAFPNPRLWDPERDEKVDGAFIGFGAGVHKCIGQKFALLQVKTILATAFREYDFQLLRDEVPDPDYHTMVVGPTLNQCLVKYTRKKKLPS

SMILES: COc1ccc(Nc2nc(-c3ccccn3)cs2)c(OC)c1
- IC50: 20 µM

SMILES: O=C(CN(Cc1ccccn1)Cc1ccccn1)NCc1csc(-c2cccs2)n1
- IC50: 40 µM

SMILES: COc1ccccc1C1CC(c2ccc(NS(C)(=O)=O)cc2)=NN1C(=O)c1cccs1 (configuration not stated)
- IC50: 25 µM

SMILES: NC(=O)c1ccc(-c2cccc(OCCN3CCN(C4CCCCC4)CC3)c2)cc1
- IC50: 40 µM

SMILES: O=C(Cn1cnc2c(-c3ccccc3)csc2c1=O)N1CCCCC1
- IC50: 40 µM

SMILES: O=C(Nc1ccc(C(F)(F)F)cc1)Nc1cccc([N+](=O)[O-])c1
- IC50: 6.3 µM

SMILES: CN(Cc1nnnn1C1CCN(Cc2ccc(-n3ccnc3)cc2)CC1)c1ccc(F)cc1F
- IC50: 0.13 µM

SMILES: CN(C(=O)Nc1ccc2c(c1)CCN(C1CCC1)CC2)c1ccc(C#N)cc1
- IC50: > 100 µM (inactive)

SMILES: O=C1CCCCCC1(Cc1cnc[nH]1)c1ccc(Cl)cc1Cl (configuration not stated)
- IC50: 0.1 µM

SMILES: O=C(C1CCCCC1)N1CCN(c2nnc(-c3ccccc3)c3ccccc23)CC1
- IC50: > 100 µM (inactive)

SMILES: N#Cc1cccc(Nc2nccc(N3CCC(NS(=O)(=O)c4cccc(C#N)c4)CC3)n2)c1
- IC50: 7.9 µM

SMILES: O=C(NCc1nnc2n1CCCCC2)c1ccc(-c2ccc(F)cc2)o1
- IC50: 79 µM

SMILES: O=C(NCc1nnc2n1CCCCC2)c1csc(-c2ccccc2)n1
- IC50: > 100 µM (inactive)

SMILES: Cc1ccccc1CNC(=O)CN(Cc1ccccn1)Cc1ccccn1
- IC50: 100 µM

SMILES: O=c1ccn(-c2ccc([N+](=O)[O-])cc2Cl)c2ccc(F)cc12
- IC50: 16 µM

SMILES: O=c1cc(NCCCNCc2cc(C(F)(F)F)cs2)[nH]c2ccccc12
- IC50: 25 µM

SMILES: O=S(=O)(NCC(c1cccnc1)N1CCN(c2ccc(F)cc2)CC1)c1cccs1 (configuration not stated)
- IC50: 0.04 µM

SMILES: COc1ccc2ncc(Cl)c(CCN3CC[C@@H](NCc4cc5c(cn4)OCS5)[C@H](O)C3)c2n1
- IC50: 1 µM

SMILES: O=C(NC1C(=O)N(c2ccccc2)C1c1cccnc1)c1ccc(Cl)s1 (configuration not stated)
- IC50: 0.2 µM

SMILES: CS(=O)(=O)NC1CCC(Nc2ncc(Br)c(Nc3ccccc3C(N)=O)n2)CC1 (configuration not stated)
- IC50: > 100 µM (inactive)

SMILES: O=C1NCCn2ccc(Nc3nc(NC4CCC(O)CC4)ncc3Cl)c21 (configuration not stated)
- IC50: > 100 µM (inactive)

SMILES: CS(=O)(=O)NC1CCC(Oc2cc3cnccc3cc2-c2ccsc2)CC1 (configuration not stated)
- IC50: 0.025 µM

SMILES: CC(C)(C)C(O)(CCc1ccc(Cl)cc1)Cn1cncn1 (configuration not stated)
- IC50: 0.13 µM

SMILES: COc1ccc2ncc(Cl)c(CCN3CC[C@H](NCc4cc5c(cn4)OCS5)[C@@H](O)C3)c2n1
- IC50: 7.9 µM

SMILES: OC1CCC(Nc2nccc(-c3sc(C4CCOCC4)nc3-c3ccc(F)c(F)c3)n2)CC1 (configuration not stated)
- IC50: > 100 µM (inactive)

SMILES: Cc1c(C#N)c([N+](=O)[O-])nn1Cc1cccc(Cl)c1Cl
- IC50: > 100 µM (inactive)

SMILES: O=C(CN(Cc1ccccn1)Cc1ccccn1)NCc1ccc(-c2csnn2)cc1
- IC50: 40 µM

SMILES: Nc1nc(-c2ccccn2)nc(-n2nc(-c3cccc(C(F)(F)F)c3)cc2N)n1
- IC50: > 100 µM (inactive)

SMILES: CN(Cc1nc2ccccc2s1)C(=O)C=Cc1cc2ccccc2o1
- IC50: 0.16 µM

SMILES: CCCc1cc(N)nc(-c2cc(CCC)cc(N)n2)c1
- IC50: > 100 µM (inactive)

SMILES: Cc1cc(C#N)c([N+](=O)[O-])cc1Br
- IC50: 7.9 µM

SMILES: Oc1c(-c2n[nH]c(CCc3ccccc3)n2)ncc2cccnc12
- IC50: > 100 µM (inactive)

SMILES: Cc1cc2cncn2c(C2CCCCN2C(=O)c2cccs2)n1 (configuration not stated)
- IC50: 0.1 µM

SMILES: c1ccc(Nc2nc3ccccc3[nH]2)nc1
- IC50: > 100 µM (inactive)

SMILES: O=C(NCc1ccncc1)c1ccccc1N1CCCN(C(=O)Cc2ccc(F)c(F)c2)CC1
- IC50: 0.079 µM

SMILES: Cc1nc(N2CCC(C(=O)N3CCC(O)(c4cccnc4)CC3)CC2)nc2ccc(C(C)C)cc12
- IC50: 0.13 µM

SMILES: CCOc1ccc(OCC(=O)N2c3ccccc3CC2C(=O)NC)cc1 (configuration not stated)
- IC50: > 100 µM (inactive)

SMILES: COCc1cc(Nc2ccccc2)nc(-c2ccccn2)n1
- IC50: > 100 µM (inactive)

SMILES: CCCCn1c(=O)c2c(N)onc2n(CCCC)c1=O
- IC50: 79 µM

SMILES: CC1CN(Cc2ccc(C#N)cc2)CCN1c1ccc(NC(=O)c2ccccc2F)cc1 (configuration not stated)
- IC50: 32 µM

SMILES: COc1ccc2ncc(=O)n(CCN3CCOC(CNCc4ccc(C(F)(F)F)cc4F)C3)c2n1 (configuration not stated)
- IC50: 10 µM

Now from value to compound:

- IC50: 2.5 µM
SMILES: O=C(CN1CCN(S(=O)(=O)c2cccc([N+](=O)[O-])c2)CC1)Nc1ccc(Oc2ccccc2)cc1

- IC50: 0.1 µM
SMILES: Cc1ccc2c(c1)-c1onc(C(=O)N3CCCCC3c3cccnc3)c1CO2 (configuration not stated)

- IC50: 63 µM
SMILES: COc1cccc(S(=O)(=O)Nc2ccc3c(c2)CC(N2CCC(NC(=O)C4CC4)CC2)C3)c1 (configuration not stated)

- IC50: > 100 µM (inactive)
SMILES: O=C(Nc1ccc(-c2nc3ccccc3c(=O)[nH]2)cc1)c1cccs1

- IC50: 40 µM
SMILES: Cn1ccnc1-c1nc(NCc2ccccc2Cl)cc(C2CC2)n1

- IC50: 0.1 µM
SMILES: CN(Cc1ccc(C(N)=O)cc1)C(c1ccc(F)cc1)c1cccnc1 (configuration not stated)

- IC50: 20 µM
SMILES: CS(=O)(=O)c1ccccc1C(=O)N(Cc1ccccc1)c1ccccc1

- IC50: 32 µM
SMILES: CN(C)CCN(C)Cc1ccc(Cl)cc1NS(=O)(=O)c1ccc(Cl)c(Cl)c1

- IC50: > 100 µM (inactive)
SMILES: O=C(Nc1ccc(Br)cn1)c1ccc(Cn2cnc([N+](=O)[O-])n2)cc1

- IC50: 0.79 µM
SMILES: COc1ccnc2[nH]cc(-c3cc(C(=O)N[C@H](CO)c4ccccc4)co3)c12

- IC50: > 100 µM (inactive)
SMILES: CCC(CC)C(=O)Nc1cccc(C(=O)Nc2nnc(C3CCCCC3)s2)c1

- IC50: 63 µM
SMILES: O=c1cc(CSc2ccc(Cl)cc2)nc(-c2ccccn2)[nH]1

- IC50: 25 µM
SMILES: CCn1c(NC(=O)Cc2ccc(F)cc2)nc2ccccc21

- IC50: 0.05 µM
SMILES: O=C(c1ccc(OCCCc2cnc[nH]2)cc1)C1CC1

- IC50: > 100 µM (inactive)
SMILES: O=C(Nc1nccs1)c1ccccc1Cn1cc([N+](=O)[O-])cn1

- IC50: 20 µM
SMILES: Cc1ccc(-c2csc(NC(=O)C=Cc3ccc(S(=O)(=O)N4CCOCC4)cc3)n2)o1

- IC50: > 100 µM (inactive)
SMILES: Cc1cc(N2CCc3ccccc3C2)nc(Nc2ccc(S(=O)(=O)N3CCOCC3)cc2)n1

- IC50: 7.9 µM
SMILES: CCN(Cc1cccs1)C(=O)CSc1nnc(-c2ccc3c(c2)OCO3)o1

- IC50: 50 µM
SMILES: Cc1cccnc1NC(=O)c1cccc(OCc2c(C)noc2C)c1

- IC50: 0.025 µM
SMILES: CNc1cncc(C2CCCN2C(=O)Cc2coc3cc(C)ccc23)n1 (configuration not stated)

- IC50: 40 µM
SMILES: Cc1nc(N2CC(C)OC(C)C2)sc1C(=O)Nc1ccc2c(c1)OCO2 (configuration not stated)

- IC50: 16 µM
SMILES: COc1ccc(S(=O)(=O)NCc2ccc(-c3ccc(CN(C)CCO)cc3)cc2)cc1

- IC50: > 100 µM (inactive)
SMILES: Cc1cc(C)n(-c2nc(NC(C)C)nc(NC(C)(C)C)n2)n1

- IC50: > 100 µM (inactive)
SMILES: CCc1ccc2nc(NC(=O)c3cc(N4CCOCC4)ccn3)sc2c1

- IC50: > 100 µM (inactive)
SMILES: O=C(Nc1nc(-c2ccccn2)cs1)c1ccccc1-n1cnnn1

- IC50: 50 µM
SMILES: O=C(Nc1nc(-c2ccc(F)cc2)cs1)c1ccc([N+](=O)[O-])s1

- IC50: 25 µM
SMILES: CC(C)(C)Nc1nc(Nc2ccc3c(c2)CS(=O)(=O)C3)nc2[nH]ccc12

- IC50: 32 µM
SMILES: CNS(=O)(=O)c1ccccc1Nc1nc(Nc2ccnn2C)ncc1Cl

- IC50: 2.5 µM
SMILES: O=C(Nc1cccc(S(=O)(=O)Nc2ccc(Br)cc2)c1)c1ccc([N+](=O)[O-])s1

- IC50: 3.2 µM
SMILES: CS(=O)(=O)c1cccc(-c2cnc(N)c3c(-c4ccc(CO)cc4)csc23)c1

- IC50: 32 µM
SMILES: CC(=O)Nc1ccc(Nc2nccc(-c3cnn4ncccc34)n2)cc1C(F)(F)F

- IC50: 40 µM
SMILES: Cc1cc(Nc2ccc(C#N)c(Cl)c2C)n[nH]1

- IC50: > 100 µM (inactive)
SMILES: Cc1ccc(NC(=O)C(C)n2nc([N+](=O)[O-])c(Br)c2C)cc1Cl (configuration not stated)

- IC50: > 100 µM (inactive)
SMILES: NS(=O)(=O)c1ccc(Nc2ncc3cccc(OC4CCNCC4)c3n2)cc1

- IC50: > 100 µM (inactive)
SMILES: Cc1nc2nc(C)c(Cc3ccc(C(C)C)cc3)c(=O)n2[nH]1

- IC50: 40 µM
SMILES: COc1ccc(NS(=O)(=O)c2cc(-c3cc(C)[nH]n3)ccc2C)cc1OC

- IC50: > 100 µM (inactive)
SMILES: CCOc1ccccc1C(=O)Nc1nnc(-c2ccc3c(c2)OCO3)s1

- IC50: > 100 µM (inactive)
SMILES: CCN(C)Cc1ccc(N2CCC(NS(=O)(=O)c3ccc4c(c3)CCO4)CC2)nc1

- IC50: > 100 µM (inactive)
SMILES: COc1ccc(NS(=O)(=O)c2cccc(NC(=O)c3cc(F)cc(F)c3)c2)cc1

- IC50: 7.9 µM
SMILES: COc1cc(Nc2nccc(Nc3onc(C)c3C)n2)cc(S(=O)(=O)C2CCOCC2)c1

- IC50: 32 µM
SMILES: CCN(CC)S(=O)(=O)c1ccc(OC)c(NC(=O)c2ccc([N+](=O)[O-])s2)c1

- IC50: > 100 µM (inactive)
SMILES: COc1ccc(-c2nc3ncccc3o2)cc1NC(=O)c1cccs1

- IC50: 6.3 µM
SMILES: COc1ccc2nccc([C@H](O)CN3CC[C@H](NC(=O)c4ccc(Br)cc4)[C@@H](O)C3)c2n1

- IC50: > 100 µM (inactive)
SMILES: COc1cccc(-c2c(C)nn(-c3nc(N)nc(-c4ccccn4)n3)c2N)c1

- IC50: > 100 µM (inactive)
SMILES: Oc1c(-c2n[nH]c(Cc3ccc(F)cc3)n2)ncc2cccnc12

- IC50: > 100 µM (inactive)
SMILES: Cc1[nH]n2c(=O)c3c(nc2c1-c1ccc(Br)cc1)CCCC3

- IC50: 0.4 µM
SMILES: COc1ccc(S(=O)(=O)Nc2ccc(C(=O)Nc3nc(-c4ccccn4)cs3)cc2)cc1

- IC50: 1.6 µM
SMILES: CCCCCNC(=O)c1c[nH]c2ccc(S(=O)(=O)N(C)c3ccc(OCC)cc3)cc2c1=O

- IC50: 32 µM
SMILES: Oc1c(-c2n[nH]c(Cc3ccc(Cl)cc3)n2)ncc2cccnc12

- IC50: 16 µM
SMILES: O=C(NCCCn1cnc2ccccc21)c1ccc(NC(=O)c2ccco2)cc1

- IC50: > 100 µM (inactive)
SMILES: Cc1cccc(NS(=O)(=O)c2ccc3c(c2)C(=O)c2cc(S(=O)(=O)Nc4cccc(C)c4C)ccc2-3)c1C

- IC50: 0.05 µM
SMILES: CC(CNS(=O)(=O)c1ccc(OC(F)F)cc1)c1ccc(NC(=O)c2ccncc2)cc1 (configuration not stated)

- IC50: 79 µM
SMILES: Cc1cc2nc(CN(C)Cc3ncccc3C)[nH]c2cc1C

- IC50: 32 µM
SMILES: CN(C)S(=O)(=O)c1ccc(Cl)c(C(=O)Nc2nc(-c3ccccn3)cs2)c1

- IC50: 16 µM
SMILES: COc1cc(Cl)c(C)cc1NC(=O)c1ccc([N+](=O)[O-])s1

- IC50: > 100 µM (inactive)
SMILES: CCN(CC)S(=O)(=O)c1ccc(C(=O)Nc2cc(C)nn2-c2nc(C)c(C)c(=O)[nH]2)cc1

- IC50: 13 µM
SMILES: O=C(CC1(O)C(=O)N(Cc2cccs2)c2ccc(Br)cc21)c1cccnc1 (configuration not stated)

- IC50: 25 µM
SMILES: N#Cc1ccc(C(=O)Nc2cccc(-c3cccc(CN4CCC(O)CC4)c3)c2)cc1

- IC50: > 100 µM (inactive)
SMILES: Cc1occc1C(=O)Nc1ccccc1C(=O)Nc1nccs1

- IC50: > 100 µM (inactive)
SMILES: COc1ccc(S(=O)(=O)Nc2ccc(CN3CCN(C(=O)c4cccc(C#N)c4)CC3)cc2)cc1

- IC50: 0.16 µM
SMILES: O=C(CN(c1cccc(C(F)(F)F)c1)S(=O)(=O)c1ccc(Cl)cc1)NCc1ccc(F)c(F)c1
